The source of these data is patent publication US10933067B2, “Nucleoside derivative having physiological activity such as antiviral activity” (NATIONAL CENTER FOR GLOBAL HEALTH AND MEDICINE, priority 2016, dated 2021).

pEC50: −log10 of the molar value. Read-outs that look alike come from different tables or passages of the source. Bounds are passed on as bounds.

Holding throughout (type): cell-based
One data set has as its system HBV. Description: Evaluation of anti-HBV activity (HepG2 2.2.15.7 cells, HBV DNA qPCR). The conditions noted are these: Hepatitis B virus. The procedure:
HepG2 2.2.15.7 cells were used as test cells. The HepG2 2.2.15.7 cells were prepared by using, as parent cell lines, HepG2 2.2.15 cells prepared so as to continuously produce HBV by introducing the HBV genes into human hepatoma cell lines (HepG2 cells). Meanwhile, the HepG2 2.2.15.7 cells were maintained by continuous culturing in DMEM containing 10% fetal calf serum, G418 (500 μg/ml), and antibiotics (penicillin and kanamycin).
The HepG2 2.2.15.7 cells are HBV continuously producing cells that carry not only genomically integrated DNAs, but also HBV genes produced as episomes. Therefore, the HepG2 2.2.15.7 cells were co-cultured with each nucleoside derivative, the DNA copy number of viruses released into the culture supernatant and the DNA copy number of the viruses present in the HepG2 2.2.15.7 cells were quantified, and a degree of decrease thereof was used as an index of the evaluation of the anti-HBV activity.
More specifically, the epG2 2.2.15.7 cells with a cell viability of 90% or more were seeded in a collagen-coated 96-well cell culture dish at a concentration of 2×10^4 cells/ml, and each nucleoside derivative was added at various concentrations at the same day as the cell seeding. After culturing for 3 days under the standard culture conditions of 37° C. and 5% CO2, the medium was exchanged to a fresh medium containing each nucleoside derivative, and HBV DNA was collected from the culture supernatant on the third day after the exchange for a 1W assay (an assay on day 7 from the start of culture). In addition, a fresh medium containing each nucleoside derivative was further added to the cell plate after the collection of the supernatant, and the culture was further continued for 7 days. For a 2W assay (an assay on day 14 from the start of culture), intracellular HBV DNAs were collected from the HepG2 2.2.15.7 cells. Using these DNAs as a template, the quantitative PCR was performed to find the virus copy number from the calibration curve, and the 50% effect (EC50) for each nucleoside derivative was calculated.
The DNA extractions from the supernatant of the HepG2 2.2.15.7 cells and from inside the cells were carried out using QIAamp Mini Elute virus Spin Kit (manufactured by QIAGEN), and 5 μL of the extracted DNAs was used for the qPCR. The PCR reaction was conducted by using a specific TaqMan probe primer, manufactured by Primer Design Ltd., which detects the HBV core protein region. The PCR reaction was carried out at 95° C. for 15 minutes, followed by 50 cycles of 95° C. for 10 seconds and 60° C. for 60 seconds. The obtained CT was converted to the HBV copy number using a calibration curve obtained from reactions in which HBV DNA fragments at a known concentration were diluted every 10-fold (from to 2×10^8 copies).

A short description of data set [1]: Cytotoxicity test 1, HepG2 cells (MTT assay). Particulars: human. The protocol: (§1) The above nucleoside derivatives were also subjected to cytotoxicity tests on the MT-2 cells and HepG2 cells. Together with the medium to which each nucleoside derivative at each concentration after serial dilution was added, the MT-2 cells were seeded at a concentration of 1×10^4, whereas the HepG2 cells were seeded at a concentration of 1×10^4. Thus, these cells were cultured in the presence of each nucleoside derivative at various concentrations for 7 days under the standard culture conditions of 37° C. and 5% CO2, and thereafter the number of live cells in each well was quantified by an MTT assay. Based on the numbers of live cells obtained, the CC50 was calculated for each nucleoside derivative.
A general note: Formazan colour is commonly taken as a measure of viable cells.

A further data set relates to HIV-1 LAI. Description: Evaluation of anti-HIV activity (MT-2 cells exposed to HIV-1 LAI, MTT assay). Particulars: Human immunodeficiency virus 1, MT2, 168 h, 7 days, read-out: Antiviral activity, EC50 HIV-1. The source says:
HIV-1 LAI was used as a wild-type HIV-1 molecular clone. In addition, MT-2 cells were used as cells to be infected. These cells were continuously cultured and maintained in a RPMI-1640 medium containing 10% FCS and supplemented with the aforementioned antibiotics. The MT-2 cells were exposed to HIV-1 LAI virus in an amount of 50 times the 50% infectious concentration (TCID 50), and the resultant MT-2 cells and a medium supplemented with each of the nucleoside derivatives at each of concentrations after serial dilution were together seeded into each cell of a 96-well cell culture dish at a concentration of 1×10^4 cells/mL. Then, after culturing for 7 days in the presence of each nucleoside derivative under standard culture conditions of 37° C. and 5% CO2, the number of live cells in each well was quantified by MTT assay. Based on the numbers of live cells obtained, the EC50 value was calculated and the anti-HIV activity of each nucleoside derivative was evaluated.

Data set [2] can be described thus: Cytotoxicity test 1, MT-2 cells (MTT assay). Particulars: human. The procedure: as §1
In data set [3] the test system is ETV resistant strain (genotype: HBV/Ce). Nature of the data set: Evaluation of anti-HBV/Ce activity (Huh-7 cells transfected with ETV resistant strain, Southern blot). Particulars: Hepatitis B virus, Huh-7, 72 h, read-out: Antiviral activity, EC50 HBV ETVr. The procedure:
Regarding the above nucleoside derivatives, each nucleoside derivative was added to Huh-7 cells transfected with an ETV resistant strain (genotype: HBV/Ce, referred to as “HBV ETVr” in Table 1). After 72 hours from the addition, DNAs were extracted from the cells according to a conventional method, and analyzed by Southern blot using a probe for the HBV gene. Thus, the DNA copy number of the viruses was quantified, and the EC50 value was calculated in the same way as described above.

The nature of data set [4]: Cytotoxicity test 2, PXB cells (MTT assay). Particulars: PXB cells (fresh human hepatocytes). The protocol: PXB cells were used as test cells. PXB cells were fresh human hepatocytes isolated from chimeric mice with humanized liver and were maintained in a dHCGM medium for PXB cells. Both the cells and the medium are made by PhoenixBio Co., Ltd.
The PXB cells were seeded at 3×10^5 cells/ml on a collagen-coated 96-well plate and cultured together with each compound at each concentration after stepwise dilution for 7 days under the standard culture conditions of 37° C. and 5% CO2, and thereafter the number of live cells in each well was quantified by an MTT assay. Based on the obtained values, the degree of cytotoxicity was determined, and the CC50 value was calculated as the cytotoxicity of each compound.

Setting [5] is: 336 h, day 14, intracellular HBV DNA, read-out: Antiviral activity, EC50 HBV 2W assay.

For orientation: pEC50 means −log10 of the EC50, conventionally taken in molar units. The CC50 is the concentration that lowers cell viability or growth by half. As to `C=C1[C@@H](n2cnc3c(=O)[nH]c(N)nc32)C[C@H](O)[C@]1(CO)CF`, the pEC50 is 7.05 with HBV (setting [5]) and less than 6.00 in the data set with HIV-1 LAI. The CC50 at 7 days in data set [1] and in data set [2] was greater than 100000 nM throughout.
Regarding `C=C[C@]1(CO)C(=C)[C@@H](n2cnc3c(=O)[nH]c(N)nc32)C[C@@H]1O`, the pEC50 with HBV (setting [5]) and in the data set on HIV-1 LAI was less than 6.00 each time. Moreover, the CC50 at 7 days in data set [1] and in data set [2] was greater than 100000 nM each time.
For `C#C[C@]1(CO)C(=C)[C@@H](n2cnc3c(=O)[nH]c(N)nc32)C[C@@H]1O`, the figures for the negative logarithm of the EC50 (pEC50) with HBV (setting [5]) and with HIV-1 LAI were less than 6.00 and 7.57, respectively. Further, the CC50 at 7 days in data set [1] and in data set [2] was greater than 100000 nM throughout.
With `C=C1[C@@H](n2cnc3c(=O)[nH]c(N)nc32)C[C@H](O)[C@@]1(O)CO`, the pEC50 with HBV (setting [5]) was 8.00; in the data set with HIV-1 LAI it was less than 6.00. The values for the CC50 at 7 days in data set [1] and in data set [2] were 67000 nM and greater than 100000 nM, respectively.
For `C=C1[C@@H](n2cnc3c(=O)[nH]c(N)nc32)C[C@H](O)[C@@]1(C#N)CO`, the pEC50 in the data set on HBV (setting [5]) is 7.52; in the data set on HIV-1 LAI, 6.80. Besides, the CC50 at 7 days is 89000 nM in data set [1] and greater than 100000 nM in data set [2].
`N#C[C@]1(CO)/C(=C\F)[C@@H](n2cnc3c(=O)[nH]c(N)nc32)C[C@@H]1O` [(1S,3S,5S,E)-3-(2-Amino-6-oxo-1,6-dihydro-9H-purin-9-yl)-2-(fluoromethylene)-5-hydroxy-1-(hydroxymethyl)cyclopentane-1-carbonitrile]: the pEC50 was 8.52 with HBV (168 h, day 7, HBV DNA in culture supernatant, read-out: Antiviral activity, EC50 HBV 1W assay); 8.15 in the data set with HBV (setting [5]); 7.19 in data set [3]; 7.70 with HIV-1 LAI. In addition, the values for the CC50 at 7 days in data set [4], in data set [1] and in data set [2] were greater than 100000 nM, 50000 nM and greater than 100000 nM, respectively.
